We go through 15 compounds from patent publication US20160045531A1, “COMBINATION THERAPY FOR TREATING CANCER” (EPIZYME, INC., priority 2014, published 2016).

In experiment [1] the test system is SKM-1 (non-MLL-rearranged AML). Description: Combination proliferation study with Compound A2 (Examples 2/3), SKM-1. The format is cell-based, human. The note with it: in combination with Compound A2. The protocol:
The HP-D300 digital dispenser (Tecan) was used to dispense compounds in a combinatorial matrix. […] Cell viability was measured via ATP content using CellTiter-Glo® (Promega).
Viability was determined using CellTiter-Glo® (Promega).

Experiment [2] deals with MV4-11 (MLL-AF4) cell line. Description: Combination proliferation study with Compound A2 (Example 1), MV4-11. The format is cell-based, human. The note with it: 7 Day Cotreatment; Chou-Talalay CI. The source says:
The acute myelogenous leukemia cell lines MV4-11 (MLL-AF4) and MOLM-13 (MLL-AF9) were obtained from American Type Culture Collection (ATCC; Rockville, Md.) and Deutsche Sammlung von Mikroorganismen and Zellkulturen (DSMZ; Braunschweig, Germany) respectively. […] Further, strong synergism is achieved when the CI value falls below 0.3.

The next experiment relates to MV4-11 (MLL-AF4). Description: Proliferation assay and calculation of synergism (Example 5), MV4-11. In kind it is cell-based, human. The note with it: 7 Day Cotreatment Model; Chou-Talalay CI.
The subject of another experiment is MOLM-13 (MLL-AF9). Description: Proliferation assay and calculation of synergism (Example 5), MOLM-13. The format is cell-based, human. The note with it: 7 Day Cotreatment Model; Chou-Talalay CI.
Another experiment relates to SKM-1 cells. Nature of the experiment: Proliferation assay and calculation of synergism (Example 5), SKM-1. Conditions: combination with Compound A2.

Structures are written as SMILES.

Protocol for MOLM-13 (MLL-AF9): MV4-11 cells were maintained in IMDM supplemented with 10% fetal bovine serum. […] They were cultured in flasks or plates in a humidified 5% CO2 atmosphere.
(§1) Proliferation studies were performed using MOLM-13, MV4-11 and SKM-1 cell lines in vitro to evaluate the cancer cell killing effect of a combination of two agents together on cell growth. Initial proliferation studies were performed to determine the IC50 values of a given compound in each cell line. The cell counts were measured by ATP quantitation using the Promega Cell Titer Glo kit and luminescence values correspond to the amount of ATP in a given well.
(§2) These studies were performed to evaluate both the combinatorial effect of compounds on cell killing and the durability of the effect by washing out one of the agents.
(§3) Compounds evaluated for synergy in the co-treatment phase were tested in a range which was bracketed around the IC50's. The compounds were plated to a 96 well plate in a matrix format which includes increasing concentrations of each drug in the combination in a constant ratio, in addition to the effect of each compound alone in the study. […] Maximum and minimum inhibition (DMSO alone) controls were used in each plate to calculate fraction affected (Fa) of a test well. DMSO concentration was kept at 0.1% v/v. The drug combination analysis was performed utilizing the Chou-Talalay method. Synergy was determined using the software package Calcusyn by Biosoft. The combination index (CI) is the term used to describe the level of synergy or antagonism in a given test system. A combination index less than one indicates synergy, and a CI greater than one indicates antagonism.
(§4) The drug combination analysis was performed using the Chou-Talalay method. Graphs representing values of combination index (CI) versus Fractional effect (Fa) known as Fa-CI plots were generated and synergy was evaluated. Drug synergy was statistically defined by CI values less than 1, antagonism by CI>1 and additive effect by CI equal to 1.
Description for SKM-1 cells: The acute myelogenous leukemia cell line MV4-11 (MLL-AF4) (CRL-9591) was obtained from American Type Culture Collection (ATCC), Manassas, Va. and both MOLM-13 (MLL-AF9) (ACC 554) and SKM-1 (ACC 547) cells were obtained from Leibniz Institute DSMZ-German Collection of Microorganisms and Cell Cultures, Braunschweig, Germany. MV4-11 cells were maintained in IMDM supplemented with 10% fetal bovine serum. MOLM-13 and SKM-1 cells were maintained in Roswell Park Memorial Institute medium (RPMI) supplemented with 10% fetal bovine serum. They were cultured in flasks or plates in a humidified 5% CO2 atmosphere.
as §1, §2, §3, §4

For the compound `Nc1ncn([C@@H]2O[C@H](CO)[C@@H](O)[C@H]2O)c(=O)n1` [Azacitidine, azacitidine], the “Combination studies with Compound A2, SKM-1 AML: Non-rearranged” value (from here on “Combination studies … Non-rearranged”) in experiment [1] is “No Combination”.

On to `Nc1ncn([C@H]2C[C@H](O)[C@@H](CO)O2)c(=O)n1` [Decitabine, decitabine], for which, in experiment [1], the “Combination studies … Non-rearranged” value is listed as “No Combination”.

As to `COc1cc2c(cc1-c1c(C)noc1C)ncc1[nH]c(=O)n([C@H](C)c3ccccn3)c12` [IBET-151], the “Combination effect with Compound A2 on proliferation, MV4-11” value (shortened to “Combination effect with Compound A2”) in experiment [2] is “Synergy (A combination index less than one indicates synergy)”. Moreover, the “Combination studies … Non-rearranged” value in experiment [1] is reported as “IC50 not achieved”.

Take `Cc1sc2c(c1C)C(c1ccc(Cl)cc1)=N[C@@H](CC(=O)OC(C)(C)C)c1nnc(C)n1-2` [JQ1]: the “Combination with Compound A2, MV4-11 (MLL-AF4)” value (“Combination … (MLL-AF4)” for short) in the experiment on MV4-11 (MLL-AF4) is listed as “Additive (additive effect by CI equal to 1)”. Also, the “Combination with Compound A2, MOLM-13 (MLL-AF9)” value (from here on “Combination … (MLL-AF9)”) in the experiment on MOLM-13 (MLL-AF9) is given as “Additive (additive effect by CI equal to 1)”.

Consider `Nc1cccc2c1CN(C1CCC(=O)NC1=O)C2=O` (stereo not shown) [Lenalidomide, lenalidomide], for which, in the experiment with MV4-11 (MLL-AF4), the “Combination … (MLL-AF4)” value is recorded as “Combination Benefit”. For the same compound, in the experiment on MOLM-13 (MLL-AF9), the “Combination … (MLL-AF9)” value was “Combination Benefit”.

With `CN(Cc1cnc2nc(N)nc(N)c2n1)c1ccc(C(=O)N[C@@H](CCC(=O)O)C(=O)O)cc1` [Methotrexate, methotrexate], the “Combination … (MLL-AF4)” value in the experiment on MV4-11 (MLL-AF4) is on record as “Additive (additive effect by CI equal to 1)”. For the same compound, the “Combination … (MLL-AF9)” value in the experiment on MOLM-13 (MLL-AF9) is on record as “Antagonistic/Additive”.

For `O=C1c2c(O)ccc(O)c2C(=O)c2c(NCCNCCO)ccc(NCCNCCO)c21` [Mitoxantrone], in experiment [2], the “Combination effect with Compound A2” value is recorded as “Synergy (A combination index less than one indicates synergy)”.

`Cc1[nH]c2ccccc2c1CCNCc1ccc(/C=C/C(=O)NO)cc1` [Panobinostat]: the “Combination … (MLL-AF4)” value in the experiment on MV4-11 (MLL-AF4) is “Antagonistic (antagonism by CI>1)”.

Take `C[C@]12C=CC(=O)C=C1CC[C@@H]1[C@@H]2[C@@H](O)C[C@@]2(C)[C@H]1CC[C@]2(O)C(=O)CO` [Prednisolone, prednisolone]: in the experiment with MV4-11 (MLL-AF4), the “Combination … (MLL-AF4)” value is reported as “Antagonistic (antagonism by CI>1)”. The “Combination … (MLL-AF9)” value in the experiment on MOLM-13 (MLL-AF9) is on record as “Antagonistic (antagonism by CI>1)”.

Turning to `CC(C)(C)c1cc(NC(=O)Nc2ccc(-c3cn4c(n3)sc3cc(OCCN5CCOCC5)ccc34)cc2)no1` [Quizartinib], the “Combination effect with Compound A2” value in experiment [2] is “synergy”.

Regarding `CC(C)C[C@H](NC(=O)[C@H](Cc1ccccc1)NC(=O)c1cnccn1)B(O)O` [Velcade, bortezomib], the “Combination … (MLL-AF4)” value in the experiment with MV4-11 (MLL-AF4) is recorded as “Combination Benefit”. The “Combination … (MLL-AF9)” value in the experiment with MOLM-13 (MLL-AF9) is on record as “Combination Benefit”.

For the compound `Nc1ncn([C@@H]2O[C@H](CO)[C@@H](O)[C@H]2O)c(=O)n1` [Vidaza], the “Combination effect with Compound A2” value in experiment [2] is “Synergy (A combination index less than one indicates synergy)”.

`CC[C@]1(O)C[C@H]2CN(CCc3c([nH]c4ccccc34)[C@@](C(=O)OC)(c3cc4c(cc3OC)N(C=O)[C@H]3[C@@](O)(C(=O)OC)[C@H](OC(C)=O)[C@]5(CC)C=CCN6CC[C@]43[C@@H]65)C2)C1` [Vincristine, vincristine]: in the experiment with MV4-11 (MLL-AF4), the “Combination … (MLL-AF4)” value is “Additive (additive effect by CI equal to 1)”. In the experiment on MOLM-13 (MLL-AF9), the “Combination … (MLL-AF9)” value was “Additive (additive effect by CI equal to 1)”.

As for `O=C(CCCCCCC(=O)Nc1ccccc1)NO` [Vorinostat], in the experiment on MV4-11 (MLL-AF4), the “Combination … (MLL-AF4)” value is reported as “Antagonistic (antagonism by CI>1)”. For the same compound, in the experiment with MOLM-13 (MLL-AF9), the “Combination … (MLL-AF9)” value is “Additive/Synergy”.

With `Nc1ncn([C@@H]2O[C@H](CO)[C@@H](O)[C@H]2O)c(=O)n1` [azacytidine, Azacytidine], the “Combination … (MLL-AF4)” value in the experiment on MV4-11 (MLL-AF4) is listed as “synergistic anti-proliferative activity”. For the same compound, in the experiment with SKM-1 cells, the “Effect of Compound A2 on the antiproliferative activity of the second agent in SKM-1” value is given as “no impact on the antiproliferative activity”. Besides, the “Combination … (MLL-AF9)” value in the experiment on MOLM-13 (MLL-AF9) is “synergistic anti-proliferative activity”.
